Source: patent US20080051382A1, “Crystalline Forms of 3-Beta-Amino 17-Methylene Androstane-6-Alpha 7-Beta-Diol Hydrochloride” (INFLAZYME PHARMACEUTICALS LTD., priority 2003, published 2008)
Counter-ions that a name gives are not always drawn.

Assays:
Format in all cases: physicochemical
[1] = Hygroscopicity of the solid form
[2] = Stability of the crystalline form versus relative humidity
[3] = Thermal stability of the crystalline form on heating

Structure (SMILES): C=C1CC[C@H]2[C@@H]3[C@@H](O)[C@H](O)C4C[C@@H](N)CC[C@]4(C)[C@H]3CC[C@]12C (stereo partly drawn) [acetate salt, 3-beta-amino-17-methylene-androstane-6-alpha,7-beta-diol, reference compound]
- hygroscopicity [1]: hygroscopic

Structure (SMILES): C=C1CCC2C3C(CC[C@]12C)[C@@]1(C)CC[C@H](N)CC1[C@@H](O)[C@@H]3O.Cl (stereo partly drawn) [form A, 3-beta-amino-17-methylene-androstane-6-alpha,7-beta-diol hydrochloride]
- hygroscopicity [1]: absence of hygroscopicity
- form conversion under high relative humidity ([2]; left for 3 days under a relative humidity above 95%): converts to form B
- temperature above which the form decomposes completely [3]: above 280 °C
- temperature at which the form begins to deteriorate chemically [3]: around 240 °C

Structure (SMILES): C=C1CCC2C3C(CC[C@]12C)[C@@]1(C)CC[C@H](N)CC1[C@@H](O)[C@@H]3O.Cl (stereo partly drawn) [form B, 3-beta-amino-17-methylene-androstane-6-alpha,7-beta-diol hydrochloride]
- relative humidity range in which the crystalline form is stable ([2]; crystalline powder, hydrochloride): above 50 % RH

Structure (SMILES): C=C1CCC2C3C(CC[C@]12C)[C@@]1(C)CC[C@H](N)CC1[C@@H](O)[C@@H]3O.Cl (stereo partly drawn) [form C, 3-beta-amino-17-methylene-androstane-6-alpha,7-beta-diol hydrochloride]
- temperature above which the form turns into anhydride D by heating ([3]; conversion of mono-hydrate to anhydrous form D): above 60 °C
